Measurements: patent US7435837B2, “Dihydrobenzofuranyl alkanamine derivatives and methods for using same” (Wyeth, priority 2003, dated 2008)
Structures can show the parent of a compound that is named as a salt.

A melting point of 254 to 257 °C was found for `NCC1Cc2c(F)ccc(-c3ccccc3)c2O1` (racemic) (as salt: hydrochloride) [Example 98, (±)-1-(4-fluoro-7-phenyl-2,3-dihydro-1-benzofuran-2-yl)methanamine] in this work.
A melting point of 228 to 231 °C was found for `Cc1ccccc1-c1ccc(F)c2c1OC(CN)C2` (racemic) (as salt: hydrochloride) [Example 99, (±)-1-[4-fluoro-7-(2-methylphenyl)-2,3-dihydro-1-benzofuran-2-yl]methanamine] in this work.
In the case of `NCC1Cc2cc(F)cc(-c3ccccc3Cl)c2O1` (racemic) (as salt: hydrochloride) [Example 100, (±)-1-[7-(2-chlorophenyl)-5-fluoro-2,3-dihydro-1-benzofuran-2-yl]methanamine], the melting point is reported as > 250 °C (dec.).
A melting point of 255 to 260 °C was found for `NCC1Cc2cc(F)cc(-c3ccccc3)c2O1` (racemic) (as salt: hydrochloride) [Example 103, (±)-1-(5-fluoro-7-phenyl-2,3-dihydro-1-benzofuran-2-yl)methanamine] in this work.
A melting point of 229 to 234 °C was found for `Cc1ccccc1-c1cc(F)cc2c1OC(CN)C2` (racemic) (as salt: hydrochloride) [Example 104, (±)-1-[5-fluoro-7-(2-methylphenyl)-2,3-dihydro-1-benzofuran-2-yl]methanamine] in this work.
In the case of `NCC1Cc2cc(F)cc(-c3ccccc3F)c2O1` (racemic) (as salt: hydrochloride) [Example 107, (±)-1-[5-fluoro-7-(2-fluorophenyl)-2,3-dihydro-1-benzofuran-2-yl]methanamine], the melting point is reported as 240 to 247 °C (dec.).
In the case of `NCC1Cc2cc(F)cc(-c3ccccc3C(F)(F)F)c2O1` (racemic) (as salt: hydrochloride) [Example 108, (±)-1-{5-fluoro-7-[2-(trifluoromethyl)phenyl]-2,3-dihydro-1-benzofuran-2-yl}methanamine], the melting point is reported as 196 to 198 °C (dec.).
A melting point greater than 240 °C was found for `NCC1Cc2c(F)c(F)cc(-c3ccccc3)c2O1` (racemic) (as salt: hydrochloride) [Example 109, (±)-(4,5-difluoro-7-phenyl-2,3-dihydro-1-benzofuran-2-yl)methylamine] in this work.
A melting point greater than 224 °C was found for `Cc1ccccc1-c1cc(F)c(F)c2c1OC(CN)C2` (racemic) (as salt: hydrochloride) [Example 110, (±)-1-[4,5-difluoro-7-(2-methylphenyl)-2,3-dihydro-1-benzofuran-2-yl]methanamine] in this work.
A melting point of 195 to 198 °C was found for `COc1cc(Cl)cc2c1OC(CN)C2` (racemic) (as salt: hydrochloride) [Example 111, (±)-1-(5-chloro-7-methoxy-2,3-dihydro-1-benzofuran-2-yl)methanamine] in this work.
A melting point of 222 to 225 °C was found for `CC1(CN)Cc2cc(Cl)cc(-c3ccccc3)c2O1` (racemic) (as salt: hydrochloride) [Example 112, (±)-1-(5-chloro-2-methyl-7-phenyl-2,3-dihydro-1-benzofuran-2-yl)methanamine] in this work.
With `CC1(CN)Cc2cc(Cl)cc(-c3ccsc3)c2O1` (racemic) (as salt: hydrochloride) [Example 113, (±)-(5-chloro-2-methyl-7-thien-3-yl-2,3-dihydro-1-benzofuran-2-yl)methylamine] the melting point was 295 to 298 °C (dec.).
A melting point of 251 to 252 °C was found for `CC1(CN)Cc2cc(Cl)cc(-c3cccs3)c2O1` (racemic) (as salt: hydrochloride) [Example 114, (±)-(5-chloro-2-methyl-7-thien-2-yl-2,3-dihydro-1-benzofuran-2-yl)methylamine] in this work.
A melting point of 216 to 218 °C was found for `CC(C)(C)/C=C/c1cccc2c1OC(CN)C2` (racemic) (as salt: hydrochloride) [Example 117, (±)-1-{7-[(1E)-3,3-dimethylbut-1-enyl]-2,3-dihydro-1-benzofuran-2-yl}methanamine] in this work.
A melting point of 158 to 160 °C was found for `CC(C)(C)CCc1cccc2c1OC(CN)C2` (racemic) (as salt: hydrochloride) [Example 118, (±)-1-[7-(3,3-dimethylbutyl)-2,3-dihydro-1-benzofuran-2-yl]methanamine] in this work.
A melting point of 209 to 211 °C was found for `NCC1Cc2cccc(/C=C/c3ccccc3)c2O1` (racemic) (as salt: hydrochloride) [Example 119, (±)-1-{7-[(E)-2-phenylvinyl]-2,3-dihydro-1-benzofuran-2-yl}methanamine] in this work.
A melting point of 155 to 157 °C was found for `NCC1Cc2cccc(CCc3ccccc3)c2O1` (racemic) (as salt: hydrochloride) [Example 120, (±)-1-[7-(2-phenylethyl)-2,3-dihydro-1-benzofuran-2-yl]methanamine] in this work.
A melting point of 239 to 241 °C was found for `Cc1ccc(-c2cccc3c2CC(CN)O3)cc1` (racemic) (as salt: hydrochloride) [Example 121, (±)-1-[4-(4-methylphenyl)-2,3-dihydro-1-benzofuran-2-yl]methanamine] in this work.
A melting point of 213 to 215 °C was found for `NCC1Cc2c(cccc2-c2ccccc2C(F)(F)F)O1` (racemic) (as salt: hydrochloride) [Example 122, (±)-1-{4-[2-(trifluoromethyl)phenyl]-2,3-dihydro-1-benzofuran-2-yl}methanamine] in this work.
A melting point of 254 to 256 °C was found for `Cc1cccc(C)c1-c1cccc2c1CC(CN)O2` (racemic) (as salt: hydrochloride) [Example 125, (±)-1-[4-(2,6-dimethylphenyl)-2,3-dihydro-1-benzofuran-2-yl]methanamine] in this work.
A melting point of 219 to 222 °C was found for `NCC1Cc2cccc(-c3c(F)cccc3F)c2O1` (racemic) (as salt: hydrochloride) [Example 139, (±)-1-[7-(2,6-difluorophenyl)-2,3-dihydro-1-benzofuran-2-yl]methanamine] in this work.
A melting point of 206 to 208 °C was found for `NCC1Cc2cccc(-c3c(Cl)cccc3Cl)c2O1` (racemic) (as salt: hydrochloride) [Example 140, (±)-1-[7-(2,6-dichlorophenyl)-2,3-dihydro-1-benzofuran-2-yl]methanamine] in this work.
A melting point of 175 to 178 °C was found for `COc1ccc(-c2cccc3c2OC(CN)C3)c(OC)c1` (racemic) (as salt: hydrochloride) [Example 143, (±)-1-[7-(2,4-dimethoxyphenyl)-2,3-dihydro-1-benzofuran-2-yl]methanamine] in this work.
A melting point of 222 to 224 °C was found for `NCC1Cc2cccc(-c3ccc(F)cc3F)c2O1` (racemic) (as salt: hydrochloride) [Example 146, (±)-1-[7-(2,4-difluorophenyl)-2,3-dihydro-1-benzofuran-2-yl]methanamine] in this work.
A melting point greater than 225 °C was found for `Cc1cccc(-c2cccc3c2OC(CN)C3)c1C` (racemic) (as salt: hydrochloride) [Example 154, (±)-1-[7-(2,3-dimethylphenyl)-2,3-dihydro-1-benzofuran-2-yl]methanamine] in this work.
A melting point greater than 225 °C was found for `NCC1Cc2cccc(-c3c(Cl)cc(Cl)cc3Cl)c2O1` (racemic) (as salt: hydrochloride) [Example 166, (±)-{[7-(2,4,6-trichlorophenyl)-2,3-dihydro-1-benzofuran-2-yl]methyl}amine] in this work.
A melting point of 227 to 228 °C was found for `Cc1cc2c(c(-c3ccccc3)c1)OC(CN)C2` (racemic) (as salt: hydrochloride) [Example 281, (±)-{[(5-methyl-7-phenyl-2,3-dihydro-1-benzofuran-2-yl)methyl]amine] in this work.
A melting point of 127 to 129 °C was found for `Cc1ccccc1-c1cc(C#N)cc2c1OC(CN)C2` (racemic) (as salt: hydrochloride) [Example 311, (±)-2-(aminomethyl)-7-(2-methylphenyl)-2,3-dihydro-1-benzofuran-5-carbonitrile] in this work.
A melting point of 195 to 197 °C was found for `CCNCC1Cc2cccc(-c3c(Cl)cccc3Cl)c2O1` (racemic) (as salt: hydrochloride) [Example 390, (±)-N-{[7-(2,6-dichlorophenyl)-2,3-dihydro-1-benzofuran-2-yl]methyl}ethanamine] in this work.
A melting point of 204 to 206 °C was found for `Cc1ccccc1-c1c(Cl)ccc2c1OC(CN)C2` (racemic) (as salt: hydrochloride) [Example 399, (±)-{[6-chloro-7-(2-methylphenyl)-2,3-dihydro-1-benzofuran-2-yl]methyl}amine] in this work.
A melting point of 221 to 223 °C was found for `NCC1Cc2ccc(Cl)c(-c3ccccc3Cl)c2O1` (racemic) (as salt: hydrochloride) [Example 400, (±)-{[6-chloro-7-(2-chlorophenyl)-2,3-dihydro-1-benzofuran-2-yl]methyl}amine] in this work.
A melting point of 212 to 213 °C was found for `NCCC1Cc2cc(F)cc(-c3c(Cl)cccc3Cl)c2O1` (racemic) (as salt: hydrochloride) [Example 553, (±)-{2-[7-(2,6-dichlorophenyl)-5-fluoro-2,3-dihydro-1-benzofuran-2-yl]ethyl}amine] in this work.
A melting point of 160 to 163 °C was found for `Cc1ccccc1-c1cc(Cl)cc2c1OC(CN)C2` (racemic) (as salt: salt) [Example 95, (±)-1-[5-chloro-7-(2-methylphenyl)-2,3-dihydro-1-benzofuran-2-yl]methanamine] in this work.
A melting point of 225 to 226 °C was found for `NCC1Cc2c(cccc2-c2ccccc2)O1` (single isomer, unassigned; (+)) (as salt: hydrobromid) [Example 2, (+)-1-(4-phenyl-2,3-dihydro-1-benzofuran-2-yl)methanamine] in this work.
A melting point of 232 to 233 °C was found for `Cc1ccccc1-c1cccc2c1CC(CN)O2` (single isomer, unassigned; (+)) (as salt: hydrobromid) [Example 5, (+)-1-[4-(2-methylphenyl)-2,3-dihydro-1-benzofuran-2-yl]methanamine] in this work.
A melting point of 234 to 236 °C was found for `NCC1Cc2cccc(-c3ccsc3)c2O1` (single isomer, unassigned; (+)) (as salt: hydrobromid) [Example 45, (+)-1-(7-thien-3-yl-2,3-dihydro-1-benzofuran-2-yl)methanamine] in this work.
A melting point of 187 to 189 °C was found for `NCC1Cc2cccc(-c3cccc(Cl)c3)c2O1` (single isomer, unassigned; (+)) (as salt: hydrobromid) [Example 66, (+)-1-[7-(3-chlorophenyl)-2,3-dihydro-1-benzofuran-2-yl]methanamine] in this work.
